Values of other authors as cited in patent US20220387434A1, “COMBINATION OF A BTK INHIBITOR AND AN MDM2 INHIBITOR FOR CANCER TREATMENT” (QUOGUE IP HOLDINGS LLC, priority 2019, published 2022).

System: lymphocytes
Details: Ibr versus Veh (FIG. 3)

C=CC(=O)N1CCC[C@@H](n2nc(-c3ccc(Oc4ccccc4)cc3)c3c(N)ncnc32)C1 [Ibrutinib, 1-[(3R)-3-[4-amino-3-(4-phenoxyphenyl)pyrazolo[3,4-d]pyrimidin-1-yl]piperidin-1-yl]prop-2-en-1-one]
mobilization of lymphocytes into the peripheral circulation: mobilization
